Measurements reported in patent publication US8623899B2, “Bis-benzimidazole derivatives as hepatitis C virus inhibitors” (Janssen Research & Development Ireland, priority 2009, dated 2014).

System: HCV type 1b replicon in Huh-7 luc/neo (Huh-Luc) cells
Experiment: HCV replicon assay (Huh-Luc, luciferase readout)
Type: cell-based
Conditions: Hepatitis C virus, Huh-7, 72 h, luciferase activity, incubation of three days, read-out: HCV-REP-HUH7LUC_EC50
From the text: The compounds of formula (I) were examined for inhibitory activity in the HCV replicon. This cellular assay is based on a bicistronic expression construct, as described by Lohmann et al. (1999) Science vol. 285 pp. 110-113 with modifications described by Krieger et al. (2001) Journal of Virology 75: 4614-4624, in a multi-target screening strategy.
In essence, the method was as follows:
The assay utilized the stably transfected cell line Huh-7 luc/neo (hereafter referred to as Huh-Luc). This cell line harbors an RNA encoding a bicistronic expression construct comprising the wild type NS3-NS5B regions of HCV type 1b translated from an Internal Ribosome Entry Site (IRES) from encephalomyocarditis virus (EMCV), preceded by a reporter portion (FfL-luciferase), and a selectable marker portion (neo^R, neomycine phosphotransferase). The construct is flanked by 5′ and 3′ NTRs (non-translated regions) from HCV type 1b. Continued culture of the replicon cells in the presence of G418 (neo^R) is dependent on the replication of the HCV RNA. The stably transfected replicon cells that express HCV RNA, which replicates autonomously and to high levels, encoding inter alia luciferase, were used for screening the antiviral compounds.
The replicon cells were plated in 384 well plates in the presence of the test and control compounds which were added in various concentrations. Following an incubation of three days, HCV replication was measured by assaying luciferase activity (using standard luciferase assay substrates and reagents and a Perkin Elmer ViewLux™ ultraHTS microplate imager). Replicon cells in the control cultures have high luciferase expression in the absence of any inhibitor. The inhibitory activity of the compound on luciferase activity was monitored on the Huh-Luc cells, enabling a dose-response curve for each test compound. EC50 values were then calculated, which represent the amount of compound required to decrease the level of detected luciferase activity by 50%, or more specifically, to reduce the ability of the genetically linked HCV replicon RNA to replicate.

Structure (SMILES)	EC50 [nM]
COC(=O)N[C@H](C(=O)N1CCC[C@H]1c1nc2cc(-c3ccc(-c4ccc5nc([C@@H]6CCCN6C(=O)[C@@H](NC(=O)OC)C6CC6)[nH]c5c4)cc3)ccc2[nH]1)C1CC1 [Compound 40]	0.014
Cc1nc(C(=O)N2CCC[C@H]2c2nc3ccc(-c4ccc(-c5ccc6nc([C@@H]7CCCN7C(=O)c7nc(C)oc7C)[nH]c6c5)cc4)cc3[nH]2)c(C)o1 [Compound 24]	1.4
COc1cccc(CCC(=O)N2CCC[C@H]2c2nc3ccc(-c4ccc(-c5ccc6nc([C@@H]7CCCN7C(=O)CCc7cccc(OC)c7)[nH]c6c5)cc4)cc3[nH]2)c1 [Compound 6]	500
COC(=O)NC(C(=O)N1CCC[C@H]1c1nc2ccc(-c3ccc(-c4ccc5nc([C@@H]6CCCN6C(=O)C(NC(=O)OC)C6CCOCC6)[nH]c5c4)cc3)cc2[nH]1)C1CCOCC1 (mixture of isomers) [Compound 55]	0.18
COC(=O)N[C@H](C(=O)N1CCC[C@H]1c1nc2cc(-c3ccc(-c4ccc5nc([C@@H]6CCCN6C(=O)[C@@H](NC(=O)OC)[C@@H](C)OC)[nH]c5c4)cc3)ccc2[nH]1)[C@@H](C)OC [Compound 2]	0.021
CN(C)CCC(=O)N1CCC[C@H]1c1nc2ccc(-c3ccc(-c4ccc5nc([C@@H]6CCCN6C(=O)CCN(C)C)[nH]c5c4)cc3)cc2[nH]1 [Compound 18]	49
CCOC(=O)N[C@H](C(=O)N1CCC[C@H]1c1nc2ccc(-c3ccc(-c4ccc5nc([C@@H]6CCCN6C(=O)[C@@H](NC(=O)OCC)C(C)C)[nH]c5c4)cc3)cc2[nH]1)C(C)C [Compound 41]	17
O=C(C(c1ccccc1)N1CCCC(F)(F)C1)N1CCC[C@H]1c1nc2ccc(-c3ccc(-c4ccc5nc([C@@H]6CCCN6C(=O)C(c6ccccc6)N6CCCC(F)(F)C6)[nH]c5c4)cc3)cc2[nH]1 (mixture of isomers) [Compound 44]	0.22
COC(=O)N[C@@H](C(=O)N1CCCC1c1nc2ccc(-c3ccc(-c4ccc5nc([C@@H]6CCCN6C(=O)[C@H](NC(=O)OC)c6ccccc6)[nH]c5c4)cc3)cc2[nH]1)c1ccccc1 (stereo partly shown) [Compound 39]	0.0067
CC(C)[C@H](O)C(=O)N1CCC[C@H]1c1nc2ccc(-c3ccc(-c4ccc5nc([C@@H]6CCCN6C(=O)[C@@H](O)C(C)C)[nH]c5c4)cc3)cc2[nH]1 [Compound 33]	110
O=C([C@H]1CCCO1)N1CCC[C@H]1c1nc2ccc(-c3ccc(-c4ccc5nc([C@@H]6CCCN6C(=O)[C@H]6CCCO6)[nH]c5c4)cc3)cc2[nH]1 [Compound 3]	20
CCC(=O)N[C@H](C(=O)N1CCC[C@H]1c1nc2ccc(-c3ccc(-c4ccc5nc([C@@H]6CCCN6C(=O)[C@@H](NC(=O)CC)C(C)C)[nH]c5c4)cc3)cc2[nH]1)C(C)C [Compound 53]	4
O=C([C@@H](O)c1ccccc1)N1CCC[C@H]1c1nc2ccc(-c3ccc(-c4ccc5nc([C@@H]6CCCN6C(=O)[C@@H](O)c6ccccc6)[nH]c5c4)cc3)cc2[nH]1 [Compound 7]	0.057
O=C([C@H](O)c1ccccc1)N1CCC[C@H]1c1nc2ccc(-c3ccc(-c4ccc5nc([C@@H]6CCCN6C(=O)[C@H](O)c6ccccc6)[nH]c5c4)cc3)cc2[nH]1 [Compound 34]	0.0037
O=C([C@@H](c1ccccc1)N1CCCC1)N1CCC[C@H]1c1nc2ccc(-c3ccc(-c4ccc5nc([C@@H]6CCCN6C(=O)[C@@H](c6ccccc6)N6CCCC6)[nH]c5c4)cc3)cc2[nH]1 [Compound 45]	0.051
O=C(CC1CCCCC1)N1CCC[C@H]1c1nc2ccc(-c3ccc(-c4ccc5nc([C@@H]6CCCN6C(=O)CC6CCCCC6)[nH]c5c4)cc3)cc2[nH]1 [Compound 29]	550
